Legend:
hepatocyte growth factor [1] = test: Protein level in patient after Tempol treatment; type: in vivo, human; details: 1500 mg per day for 180 days
Description: (§1) A 70-kilogram patient three days post myocardial infarction is administered a dose of 1500 mg of Tempol per day for 180 days. This may be administered in a single dose, or may be administered as a number of smaller doses over a 24-hour period: for example, three 500-mg doses at eight-hour intervals. Following treatment, the protein level of hepatocyte growth factor and adiponectin in the plasma is increased, and the protein level of caspase 3 is decreased.
as §1, with “at risk for” for “three days post”

adiponectin = test: Protein level in patient after Tempol treatment; type: in vivo, human; details: 1500 mg per day for 180 days
Description: as §1
as §1, with “at risk for” for “three days post”

caspase 3 [2] = test: Protein level in patient after Tempol treatment; type: in vivo, human; details: 1500 mg per day for 180 days
Description: as §1
as §1, with “at risk for” for “three days post”

hepatocyte growth factor [3] = test: Gene expression in cardiac tissue of mice fed Tempol, chip-based microarray; type: in vivo; details: 5 mg/g of food from 14 to 31 months of age
Description: To assess the effects of Tempol on gene expression, Tempol was administered to experimental mice at a dose of 5 mg/g of food from 14 months to 31 months after birth. Mice receiving the same food without the addition of Tempol were used as a negative control. At the age of 31 months, the experimental animals were sacrificed and the hearts were surgically removed. The expression of a broad spectrum of genes in the cardiac tissue was assessed using chip-based microarray technology. Such chips are well known in the art and are widely used to assess gene expression.

endothelium = details: angiotensin II infused rats, introduction of Tempol; cited from earlier work
Caspase 3 [4] = test: Gene expression in adipose tissue of mice fed Tempol, Affymetrix MOE430A 2.0 array; type: in vivo; details: 5 g/kg of diet from 12 through 15 months
Description: (§2) In a further gene expression study, Tempol was administered to experimental mice at a dose of 5 g/kg of diet from 12 months through 15 months. Mice receiving the same diet without the addition of Tempol were used as a negative control. At the age of 15 months, the adipose tissue of the experimental animals was obtained. The expression of a broad spectrum of genes in the adipose tissue was assessed using chip-based microarray technology. Specifically, in this case an Affymetrix MOE430A 2.0 array, containing 12,960 genes, was employed. Such chips are well known in the art and are widely used to assess gene expression.

[5] = system: Adiponectin, C1Q and collagen domain containing; test: as above; type: in vivo; details: 5 g/kg of diet from 12 through 15 months
Description: as §2

[6] = Example 1: 70-kg patient three days post myocardial infarction
[7] = Example 2: 70-kg patient at risk for myocardial infarction

CC1(C)CC(O)CC(C)(C)N1[O] [Tempol, 4-hydroxy-2,2,6,6-tetramethylpiperidine-1-oxyl]
Protein level of hepatocyte growth factor in the plasma (hepatocyte growth factor [1]; [6]): increased | Protein level of hepatocyte growth factor in the plasma (hepatocyte growth factor [1]; [7]): increased | Protein level of adiponectin in the plasma (adiponectin; [6]): increased | Protein level of adiponectin in the plasma (adiponectin; [7]): increased | Protein level of caspase 3 (caspase 3 [2]; [6]): decreased | Protein level of caspase 3 (caspase 3 [2]; [7]): decreased | HGF expression, fold change (increase) vs control mice (hepatocyte growth factor [3]): 3.2 fold | HGF (ORF W12681) expression, TEMPOL-treated mouse tp51 (hepatocyte growth factor [3]; microarray signal): 152 | HGF (ORF W12681) expression, TEMPOL-treated mouse tp52 (hepatocyte growth factor [3]; microarray signal): 151 | HGF (ORF W12681) expression, TEMPOL-treated mouse tp53 (hepatocyte growth factor [3]; microarray signal): 207 | Deleterious effects of angiotensin II on the endothelium (endothelium): ameliorated | Caspase 3 expression, mean (Tempol-treated mice) (Caspase 3 [4]; microarray signal): 414 | Caspase 3 expression, fold change vs control mice (signed) (Caspase 3 [4]; negative = decrease): −1.47 fold | Caspase 3 expression, fold decrease vs control mice (Caspase 3 [4]; stated as decreased): 1.47 fold | Adiponectin expression, fold change (increase) vs control mice [5]: 1.22 fold | Adiponectin expression, mean (Tempol-treated mice) ([5]; microarray signal): 33876
